Legend:
[1] = system: Chinese-hamster ovary (CHO) cells; conditions: cited from earlier work; for toxicity to CHO cells: incubated in vitro for 7-10 days
[2] = Evaluation of toxicity of the tyrosine isomers; assay type: in vivo, mice; conditions: for health of mice after three weeks of treatment / hematologic populations of the blood or the spleen / histological alterations in analyzed tissues / anti-RRC antibody levels: higher dose; for histological alterations in analyzed tissues: three weeks of treatment; for anti-RRC antibody levels: tumor bearing mice and normal mice
Procedure: The effect of meta-tyrosine and ortho-tyrosine on the immune response triggered by a conventional antigen was evaluated. Ram red cells (RRC) were used.

LB tumor [3] = assay: In vivo growth of s.c. LB tumor implants (primary, secondary under CR, established, ascitic); design: species or system mice; conditions: for inhibition of tumor cells in euthymic versus nude mice: mouse, in vivo
ERK1 and ERK2 = assay: Western blot of p-ERK 1/2 in LB tumor cells; assay type: cell-based, mice; conditions: LB cells cultured 3 minutes with m-tyrosine (250 μg/mL)
Procedure: (§1) FIG. 8 illustrates the effect of meta-tyrosine on the expression of phosphorylated (p)-Erk 1/2 and p-STAT3 in LB tumor cells using Western blot: 3×10^5 LB tumor cells in 0.1 mL of medium were cultured in the presence of 0.1 mL of meta-tyrosine (m-Tyr; 250 μg/mL), phenylalanine (Phe, 250 μg/mL), meta-tyrosine (250 μg/mL)+phenylalanine (250 μg/mL), or saline for 3 minutes (to measure p-ERK 1/2) or for 8 hours (to measure p-STAT3). Positive control was obtained by treating LB cells with pervanadate. Controls with acting, total ERK 1/2, and total STAT3 were also added. FIG. 8A illustrates a representative experiment showing p-ERK 1/2 expression. FIG. 8B is a histogram showing the mean of 5 experiments; a, P<0.01 versus saline and versus meta-tyrosine+phenylalanine; P<0.02 versus phenylalanine. FIG. 8C illustrates a representative experiment showing p-STAT3 expression. […]
(§2) On this basis, we analyzed, first, the effect of m-tyrosine on ERK1 and ERK2 as 2 examples of protein kinases that are activated by the mitogen activated protein/extracellular signal-regulated kinase (MAP/ERK) signal transduction pathway that normally couples intracellular responses associated with cell proliferation, to the binding of growth factors to cell surface receptors (Kohno M, and Pouyssegur J. 2006. Targeting the ERK signaling pathway in cancer therapy. Ann Med; 38:200-211). […]

STAT3 = assay: Western blot of p-STAT3 in LB tumor cells; assay type: cell-based, mice; conditions: LB cells cultured 8 hours with m-tyrosine (250 μg/mL)
Procedure: as §1, §2

CEI tumor cells = assay: In vitro proliferation of CEI tumor cells; assay type: cell-based; conditions: dose-dependent, not shown
MC-C tumor cells = assay: In vitro proliferation of MC-C tumor cells; assay type: cell-based; conditions: dose-dependent, not shown
CEI tumor = assay: In vivo growth of s.c. CEI epidermoid carcinoma implants; design: species or system mice; conditions: for effect on growth of CEI tumor implants: mouse, in vivo
Procedure: Twelve mice received a s.c. implant of 1×10^6 CEI tumor cells in the right flank and 28 days later they received a secondary implant of 3×10^5 CEI tumor cells in the left flank. […] The remaining 6 mice received 0.2 ml of phenylalanine (500 μg/ml) at the site of the secondary implant, daily, for 19 days, starting 1 hour later than the secondary implant. These secondary implants grew as in 6 controls only receiving the implant in the left flank (tumor volumes of secondary tumor+phenylalanine and of controls, 20 days after the implant in the left flank were 358±38 mm^3 and 373±93 mm^3, respectively). […] Significance: Secondary tumor and control+m-tyrosine vs. control: p<0.01; vs. secondary tumor+phenylalanine: p<0.001.

LB tumor [4] = assay: In vivo growth of s.c. LB tumor implants (primary, secondary under CR, established, ascitic); design: species or system mice; conditions: for growth of LB tumor implant: inoculated at the site of a primary tumor implant or systemically, daily for 8 days
Procedure: Twenty mice received an s.c. implant of 1×10^6 LB cells in the right flank, and, 7 days later, an s.c. secondary implant of 1×10^5 LB tumor cells in the left flank. […] The remaining 10 mice received 0.2 mL of phenylalanine (500 μg/mL) at the site of the secondary implant, daily, for 8 days, starting 1 hour after the secondary inoculum [CR+Phe (-□-)]. Controls were 10 mice receiving 1×10^5 LB tumor cells in the left flank only [control (-Δ-)]. A fourth group received the tumor inoculum in the left flank but also meta-tyrosine at the site of tumor implant (0.2 mL of 500 μg/mL, n=10) or by the intraperitoneal route (0.5 mL of 1,000 μg/mL, n=6), daily, for 8 days, starting 1 hour after tumor inoculum [control+m-Tyr: (-▴-)]. A fifth group received the tumor inoculum in the left flank and also meta-tyrosine (0.2 mL of 500 μg/mL, n=5) at the site of tumor growth, daily for 5 days, starting (see arrow) when LB was an established tumor measuring 60 to 70 mm^3 [est. LB+m-Tyr: (-X-)]. Abscissa, days after tumor implant in the left flank. Ordinate, volume of the tumors implanted in the left flank. CR and control+m-Tyr versus control: P<0.001 at day 9 and P<0.002 at days 5 and 7; CR and control+m-Tyr versus CR+Phe: P<0.001 at days 5, 7 and […]; est. LB+m-Tyr versus control and CR+Phe: P<0.002 at day 9. Control+tyrosine or saline, control; CR+tyrosine or saline, CR. FIG. 6B is a microscopic view showing many tumor cells expressing Ki-67 protein in both CR+phenylalanine (B1) and control (B2) groups and few tumor cells expressing Ki-67 in both CR (B3) and control+meta-tyrosine (B4) groups (H×400). FIG. 6C illustrates a representative experiment showing the frequency distribution histogram of viable LB cells from a control tumor (C1), from a secondary tumor inhibited by CR (C2), and from a tumor inhibited by periodic intraumoral injection of meta-tyrosine (C3). Samples of tumor cells were collected 9 days after the s.c. inoculation of 1×10^5 LB tumor cells.

Compound: NC(Cc1cccc(O)c1)C(=O)O (stereo not drawn) [meta-tyrosine, 3-hydroxyphenylalanine]
- toxicity to CHO cells [1]: toxic
- CHO cells alive 10 days after start of the in vitro culture ([1]; treated with meta-tyrosine): 70%
- toxic side effects in tumor-bearing mice ([2]; during treatment of MC-C, CEI and C7HI tumors): without exhibiting toxic side effects
- health of mice after three weeks of treatment [2]: remained in good health
- hematologic populations of the blood or the spleen [2]: did not affect
- histological alterations in analyzed tissues [2]: no histological alterations
- anti-RRC antibody levels [2]: does not affect
- inhibition of tumor cells in euthymic versus nude mice (LB tumor [3]): Identical inhibition
- effect on ascitic LB tumor cells (LB tumor [3]; not shown): inhibitory
- activation of ERK1 and ERK2 (p-ERK 1/2 expression) (ERK1 and ERK2): significantly reduced
- activation of STAT3 (p-STAT3 expression) (STAT3): significantly reduced
- in vitro proliferation of CEI tumor cells (CEI tumor cells): inhibited
- in vitro proliferation of MC-C tumor cells (MC-C tumor cells): inhibited
- tumor volume 20 days after the implant in the left flank (CEI tumor; CEI implant in left flank only, 0.2 ml of 500 μg/ml daily for 19 days at the site of the implant): 0 mm^3
- effect on growth of CEI tumor implants (CEI tumor): sharp inhibitory effects
- effect on established s.c. LB tumors (LB tumor [4]; at site of tumor growth, daily for 5 days, tumor 60 to 70 mm^3 at start): inhibitory
- expression of Ki-67 protein in tumor cells (LB tumor [4]; control+m-tyrosine tumors or secondary implants treated with phenylalanine (FIG. 6B)): low expression of Ki-67
- growth of LB tumor implant (LB tumor [4]): did not grow
- tumor growth when treatment was interrupted (LB tumor [4]; mouse, in vivo): could reassume their growth
- cell-cycle distribution of LB tumor cells (LB tumor [4]; tumor inhibited by exogenous injection (FIG. 6C)): a decrease in G2-M phases and an increase of the S phase population

Compound: NC(Cc1ccccc1O)C(=O)O (stereo not drawn) [ortho-tyrosine, 2-hydroxyphenylalanine]
- toxicity to CHO cells [1]: toxic
- health of mice after three weeks of treatment [2]: remained in good health
- hematologic populations of the blood or the spleen [2]: did not affect
- histological alterations in analyzed tissues [2]: no histological alterations
- anti-RRC antibody levels [2]: does not affect
- inhibition of tumor cells in euthymic versus nude mice (LB tumor [3]): Identical inhibition
- in vitro proliferation of CEI tumor cells (CEI tumor cells): inhibited
- in vitro proliferation of MC-C tumor cells (MC-C tumor cells): inhibited
- effect on growth of CEI tumor implants (CEI tumor): inhibitory
- growth of LB tumor implant (LB tumor [4]): inhibitory
